In patent publication US20020068712A1, “Use of decreasing levels of functional transient receptor potential gene product” (priority 1999, published 2002):

Legend:
Assay type in all cases: cell-based, rat
[1] = test system: RPAECs; assay: Whole cell patch clamp determination of store-operated Ca2+ entry
Description: Whole cell patch clamp was utilized to measure transmembrane ion flux in thapsigargin-stimulated RPAECs. Confluent RPAECs were enzyme dispersed, seeded onto 35-mm plastic culture dishes, and then allowed to reattach for at least 24 h before patch-clamp experiments were performed. […] These cells were chosen for study because their morphology was consistent with RPAECs from a confluent monolayer. The extracellular and pipette solutions were composed of the following (in mM): 1) extracellular: 110 tetraethylammonium aspartate, 10 calcium aspartate, 10 HEPES, and 0.5 3,4-diaminopyridine; and 2) pipette: 130 N-mehyl-D-glucamine, 1.15 EGTA, 10 HEPES, 1 Ca(OH)2, and 2 Mg^2+-ATP. Both solutions were adjusted to 290-300 mosM with sucrose and pH 7.4 with methane sulfonic acid, and [Ca^2+]i was estimated as 100 nM (10). The pipette resistance was 2-5 MΩ. Data were obtained with a HEKA EPC9 amplifier (Lambrecht/Pfaltz) and sampled on-line with Pulse+Pulsefit software (HEKA). All recordings were made at room temperature (22° C.). To generate current-voltage (I-V) relationships, voltage pulses were applied from −100 to +100 mV in 20-mV increments, with a 200-ms duration during each voltage step and a 2-s interval between steps. The holding potential between each step was 0 mV.

[2] = test system: RPAECs; assay: Assessment of endothelial cell shape change (scanning electron micrographs)
Description: were seeded onto 35-mm plastic culture dishes and grown to confluence. Growth medium was replaced with experimental buffer (same as that used for [Ca^2+]i measurements but without fura 2), and the cells were subjected to one of the following protocols: 1) vehicle control (5 min) in 2 mM or 100 nM extracellular Ca^2+ concentration ([Ca^2+]o); 2) thapsigargin (1 μM, 5 min) in 2 mM or 100 nM ([Ca^2+]o; or 3) thapsigargin in 100 nM [Ca^2+]o+readdition of 2 mM CaCl2 (5 min). At the end of each experiment, the cell monolayers were fixed in 3% gluteraldehyde-PBS for 2 h. The cells were washed two times with 0.1 M cacodylate buffer, dehydrated by immersion in a series of ethanol dilutions, critical point dried in CO2, and covered with 20 nm of gold. Specimens were viewed at […] at a 15° inclination. Scanning electron micrographs were taken of representative areas in the monolayer by a pathologist blinded to the experimental protocols.

[3] = test system: RPAECs; assay: Assessment of filamentous actin arrangement (confocal microscopy)
Description: Experiments to determine filamentous actin (F-actin) arrangement were conducted in parallel with those assessing endothelial cell shape. […] were seeded onto glass coverslips, and F-actin was stained with Oregon Green-phalloidin (Molecular Probes) with a standard fixation and staining protocol. Cells were analyzed by confocal microscopy (excitation at 496 nm and emmision at 520 nm). Micrographs were taken at multiple cellular depths (0.3-μm steps, 13-15 sections) and were used to deduce the microfilamentous cytoskeleton configurations of the cells.

[4] = test system: RPAECs; assay: [Ca2+]i measurement by fura 2 fluorescence
Description: RPAECs were seeded onto chambered glass coverslips (Nalge Nunc, Naperville, Ill.) and grown to confluence. [Ca^2+]i was estimated with the Ca^2+-sensitive fluorophore fura 2-AM (Molecular Probes, Eugene, Oreg.) according to methods previously described by our laboratory (38). Because this is the first report of [Ca^2+]i measurements in cultured RPAECS, a summary of the technique will be presented. RPAECs were washed with 2 ml of a HEPES (Fisher Scientific, Atlanta, Ga.)-buffered physiological salt solution (PSS) containing (in g/l) 6.9 NaCl, 0.35 KCl, 0.16 KH2PO4, 0.141 MgSO4, 2.0 D-glucose, and 2.1 NaHCO3. The loading solution (1 ml) consisted of PSS plus 3 μM fura 2-AM, 3 μl of a 10% pluronic acid solution, and 2 mM or 100 nM CaCl2. RPAECs were fura loaded for 20 min in a CO2 incubator at 37° C. After this loading period, the cells were again washed with PSS (2 ml) and treated with deesterification medium (PSS+2 mM or 100 nM CaCl2) for an additional 20 min. After deesterification, [Ca^2+]i was assessed with an Olympus 1×70 inverted microscope at ×400 with a xenon arc lamp photomultiplier system (Photon Technologies, Monmouth Junction, N.J.), and data were acquired and analyzed with PTI Felix software. Epifluorescence (signal averaged) was measured from three to four endothelial cells in a confluent monolayer, and the changes in [Ca^2+]i are expressed as the fluorescence ratio of the Ca^2+-bound (340-nm) to Ca^2+-unbound (380-nm) excitation wavelengths emitted at 510 nm.

[5] = thapsigargin-stimulated current, data not shown
[6] = thapsigargin in 100 nM [Ca2+]o, then readdition of 2 mM [Ca2+]o

Compound | effect on inward current at negative voltages [1, 5] | effect on outward current at positive voltages [1, 5] | endothelial cell shape / intercellular gaps ([2]; thapsigargin 1 μM, 5 min, 100 nM [Ca2+]o) | endothelial cell shape / intercellular gaps ([2]; thapsigargin 1 μM, 5 min, 2 mM [Ca2+]o) | endothelial cell shape / intercellular gaps [2, 6] | F-actin arrangement ([3]; thapsigargin in low [Ca2+]o, then readdition of 2 mM [Ca2+]o) | F-actin arrangement ([3]; thapsigargin, 2 mM [Ca2+]o) | F-actin arrangement ([3]; thapsigargin, low (100 nM) [Ca2+]o, compared with low [Ca2+]o alone) | [Ca2+]i response (fura 2 340/380 fluorescence ratio) ([4]; thapsigargin 1 μM, 2 mM [Ca2+]o) | [Ca2+]i response after readdition of [Ca2+]o [4, 6] | peak and sustained plateau phases of [Ca2+]i response ([4]; thapsigargin, 100 nM [Ca2+]o) | net inward current stimulated ([1]; 1 μM thapsigargin in pipette, at −80 mV) | slope conductance ([1]; 1 μM thapsigargin in pipette, calculated from −100 to −20 mV without respect to cell capacitance) | effect on I-V curve ([1]; 1 μM thapsigargin in pipette, whole cell, 3-5 min)
O=C(O)c1ccccc1Nc1ccccc1 [N-phenylanthranilic acid] | little effect | strongly attenuated |  |  |  |  |  |  |  |  |  |  |  | 
C/C=C(/C)C(=O)O[C@H]1C(C)=C2[C@H]([C@@H]1OC(=O)CCCCCCC)[C@@](C)(OC(C)=O)C[C@H](OC(=O)CCC)[C@@]1(O)[C@H]2OC(=O)[C@@]1(C)O [Thapsigargin, thapsigargin] |  |  | little change in morphology and a lack of interendothelial gaps | endothelial cell retraction and intercellular gap formation | pronounced cell retraction and gap formation | appearance of dense, transcellular fibers and a decrease in peripheral F-actin staining | a decrease in peripheral F-actin density and an increase in the number and/or density of central transcellular F-actin filaments | only modest changes in F-actin arrangements | gradual increase in [Ca^2+]i to a peak level followed by a modest decline | immediate increase in [Ca^2+]i | significantly attenuated | 5.45±0.90 pA/pF | 1.64 nS | right shifted the I-V curve and increased the current magnitude
